Measurements published in publication PMC2916745 (Journal of medicinal chemistry, 2010).
Values belong to the compound of their own block, whether it stands above or below them.

Legend:
[1] = target: T1, human ERα (Homo sapiens, UniProt P03372); assay: competitive radiometric binding assay with [3H]estradiol, ERα; conditions: relative binding affinity, IC50[estradiol]/IC50[compound] × 100, estradiol = 100; 10 nM [3H]estradiol, 18-24 h at 0 °C; average ± range or SD
T1 sequence (P03372 1-595): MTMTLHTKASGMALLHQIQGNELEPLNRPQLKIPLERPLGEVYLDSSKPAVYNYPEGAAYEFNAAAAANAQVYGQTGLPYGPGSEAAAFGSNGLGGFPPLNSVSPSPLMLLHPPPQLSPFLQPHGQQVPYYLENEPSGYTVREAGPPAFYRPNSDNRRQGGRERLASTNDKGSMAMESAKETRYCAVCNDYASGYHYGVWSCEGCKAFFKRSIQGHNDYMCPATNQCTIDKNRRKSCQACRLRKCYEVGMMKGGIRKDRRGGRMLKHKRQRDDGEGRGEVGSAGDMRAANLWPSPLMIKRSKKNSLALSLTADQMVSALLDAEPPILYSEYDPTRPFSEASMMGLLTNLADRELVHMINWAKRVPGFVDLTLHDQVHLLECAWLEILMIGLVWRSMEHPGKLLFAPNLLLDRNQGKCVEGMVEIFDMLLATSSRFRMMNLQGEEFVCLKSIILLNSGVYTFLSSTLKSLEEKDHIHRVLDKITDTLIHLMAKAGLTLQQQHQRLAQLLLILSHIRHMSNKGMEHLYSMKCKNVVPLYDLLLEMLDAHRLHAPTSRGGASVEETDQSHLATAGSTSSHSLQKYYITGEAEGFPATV

[2] = target: human ERβ (Homo sapiens, UniProt Q92731); assay: competitive radiometric binding assay with [3H]estradiol, ERβ
Sequence of human ERβ (Q92731 whole entry): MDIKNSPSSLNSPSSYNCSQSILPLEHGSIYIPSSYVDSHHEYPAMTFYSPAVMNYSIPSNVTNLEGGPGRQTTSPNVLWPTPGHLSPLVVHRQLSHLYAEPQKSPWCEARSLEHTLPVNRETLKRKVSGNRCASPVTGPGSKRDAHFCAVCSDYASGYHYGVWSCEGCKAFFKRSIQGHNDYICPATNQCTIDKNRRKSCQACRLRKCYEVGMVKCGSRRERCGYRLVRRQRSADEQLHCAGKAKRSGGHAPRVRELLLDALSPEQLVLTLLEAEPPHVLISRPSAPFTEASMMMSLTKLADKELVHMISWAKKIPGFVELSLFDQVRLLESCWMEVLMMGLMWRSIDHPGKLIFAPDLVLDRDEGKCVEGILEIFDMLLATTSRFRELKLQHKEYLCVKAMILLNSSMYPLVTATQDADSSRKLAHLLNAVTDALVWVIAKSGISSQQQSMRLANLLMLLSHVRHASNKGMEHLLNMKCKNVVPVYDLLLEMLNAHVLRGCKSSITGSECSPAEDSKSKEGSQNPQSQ

[3] = test system: ERα-target genes; assay: real-time PCR analysis of ERα target genes in MCF-7 cells; type: cell-based, human; conditions: 1 μM compound, 1 nM E2, RNA level
[4] = test system: tamoxifen-resistant breast tumors; conditions: cited from earlier work
[5] = cited from earlier work
[6] = test system: tamoxifen-resistant breast cancer cells; conditions: cited from earlier work
[7] = Figure 6B, not fully reversed to control

- RBA ERα [1]: 68 ± 18
- β/α ([2]; ratio of RBA values, >1 for higher affinity on ERβ than on ERα): 4.9
- RBA ERβ ([2]; relative binding affinity, IC50[estradiol]/IC50[compound] × 100, estradiol = 100, 10 nM [3H]estradiol, 18-24 h at 0 °C, average ± range or SD): 334 ± 54
Structure (SMILES): CC(=O)Oc1ccc(C(=C2CCCCC2)c2ccc(OC(C)=O)cc2)cc1 [Compound 2, cyclofenil]

Structure (SMILES): CC/C(=C(\c1ccc(O)cc1)c1ccc(/C=C/C(=O)O)cc1)c1ccccc1 [Compound 4]
- E2-mediated activation of the CA12 gene ([3]; Figure 6A): most effective
- E2-mediated stimulation of the PR gene ([3]; Figure 6A): significantly blocked
- E2-mediated stimulation of the pS2 gene ([3]; Figure 6A): significantly blocked
- E2-mediated repression of BLNK gene expression [3, 7]: reduce
- E2-mediated repression of ENC1 gene expression [3, 7]: reduce

Structure (SMILES): CC/C(=C(\c1ccccc1)c1ccc(/C=C/C(=O)O)cc1)c1ccccc1 [Compound 1]
- growth of tamoxifen-resistant breast tumors [4]: can inhibit

Structure (SMILES): C[C@]12CC[C@@H]3c4ccc(O)cc4C[C@@H](CCCCCCCCC[S+]([O-])CCCC(F)(F)C(F)(F)F)[C@H]3[C@@H]1CC[C@@H]2O (some centres unmarked) [ICI 182,780]
- oral bioavailability [5]: poor
- growth of tamoxifen-resistant breast cancer cells [6]: capable of inhibiting
